Experiment [1] concerns the target T1, ERK5 (Homo sapiens, UniProt Q13164). Briefly: cell-based.
Target sequence in this assay (Q13164 whole entry): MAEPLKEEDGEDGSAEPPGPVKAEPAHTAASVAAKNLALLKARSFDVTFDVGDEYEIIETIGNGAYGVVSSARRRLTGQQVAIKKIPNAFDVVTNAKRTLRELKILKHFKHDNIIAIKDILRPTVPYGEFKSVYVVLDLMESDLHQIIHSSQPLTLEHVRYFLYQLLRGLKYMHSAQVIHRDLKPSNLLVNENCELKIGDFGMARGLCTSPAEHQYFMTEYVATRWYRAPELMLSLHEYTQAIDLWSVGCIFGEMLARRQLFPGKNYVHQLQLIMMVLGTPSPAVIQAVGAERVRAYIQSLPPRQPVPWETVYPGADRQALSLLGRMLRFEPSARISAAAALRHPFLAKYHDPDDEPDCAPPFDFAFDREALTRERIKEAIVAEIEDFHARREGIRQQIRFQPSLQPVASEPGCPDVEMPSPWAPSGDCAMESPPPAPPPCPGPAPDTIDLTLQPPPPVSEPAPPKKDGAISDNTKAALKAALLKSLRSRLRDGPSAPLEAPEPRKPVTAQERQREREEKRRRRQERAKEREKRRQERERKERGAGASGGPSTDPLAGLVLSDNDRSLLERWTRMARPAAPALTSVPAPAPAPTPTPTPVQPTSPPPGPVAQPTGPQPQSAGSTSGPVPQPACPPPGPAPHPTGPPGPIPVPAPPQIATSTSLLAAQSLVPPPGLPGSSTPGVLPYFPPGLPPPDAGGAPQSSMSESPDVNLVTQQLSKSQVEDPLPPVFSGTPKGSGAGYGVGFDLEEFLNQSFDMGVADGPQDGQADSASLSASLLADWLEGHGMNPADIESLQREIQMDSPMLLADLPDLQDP
Procedure: (§1) Two assays were performed to assess the ERK5 inhibitory activity of compounds of the Examples, a cell-based assay and a cell-free biochemical assay.
The renal cancer cell line SN12C was transduced by a lentivirus pGreenFire1 MEF2 EF1 Neo (ref TR030VA-N) from SBI using standard infection protocol. pGreenFire1 MEF2 EF1 Neo allows the expression of luciferase gene under the control of minimal promoter with MEF2 transcriptional response elements. Cells harboring the reporter construct were selected by geneticin treatment. The selected cells were then transposed by a piggyback based plasmid pCM4007 allowing the expression of constitutively activated MEK5DD under control of TREG3 promoter, a doxycycline regulated promoter. Transposed cells were selected by puromycin treatment. Upon doxycycline treatment (1 μg/ml) MEK5DD was expressed. MEK5DD activates ERK5 that phosphorylates MEF2C protein. Activated MEF2C protein can bind to its transcriptional response elements. Then the luciferase is expressed. In a 96-well plate (96F nuncleon ref137101 thermofisher), 50,000 cells were inoculated in 142.5 μl of RPMI medium containing 10% fetal calf serum, 1% glutamine, and 1 μg/ml doxycycline. […] The luciferase activity was measured using the Kit Bright Glo Luminescent Cell Assay Cat E2610 (Promega) according to the manufacturer's protocol. Luminescence was determined using 0.2 second reading/well using a Tecan SPARK. IC50 values were calculated using XLFIT5 for Microsoft Excel using method 205.
Experiment [2] concerns the target T1, ERK5. Briefly: biochemical.
Target sequence in this assay (Q13164 55-347 limits assumed): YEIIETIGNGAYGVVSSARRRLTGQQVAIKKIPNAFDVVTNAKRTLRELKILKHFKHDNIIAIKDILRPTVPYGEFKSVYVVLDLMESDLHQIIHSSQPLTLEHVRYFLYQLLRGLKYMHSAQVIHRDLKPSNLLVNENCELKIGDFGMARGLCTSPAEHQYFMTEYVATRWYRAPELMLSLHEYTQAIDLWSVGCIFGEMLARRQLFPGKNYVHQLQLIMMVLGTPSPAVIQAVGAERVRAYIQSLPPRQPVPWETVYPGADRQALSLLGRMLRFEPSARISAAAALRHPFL
Procedure: as §1
An assay was performed to measure the capacity of each compound to inhibit ERK5 enzymatic activity. Compound potency was evaluated by Time-Resolved Forster Resonance Energy Transfer (FRET system). […] A mixture of 1 mM ATP and 1 μM biotinylated synthetic peptide was added (Biosyntan GmbH). This synthetic peptide represents amino acids 30-52 of Eukaryotic translation initiation factor 4E-binding protein 1 (see, e.g., the sequence under accession No. NP_004086.1) biotinylated at the N-terminus.

pIC50: −log10 of the molar value. Counter-ions that a name gives are not always drawn. Some results are limits rather than exact numbers.

With `Nc1nc2ccccc2nc1C(=O)N1CCC(c2ccnc3[nH]c(C4CCOCC4)nc23)CC1` [Example 116, (3-aminoquinoxalin-2-yl)-[4-(2-tetrahydropyran-4-yl-3H-imidazo[4,5-b]pyridin-7-yl)-1-piperidyl]methanone], the negative-log IC50 (pIC50) (as a rule, the IC50 on a negative log10 scale, so that one unit is a factor of ten) is under 5.00 in experiment [1] and 4.79 in experiment [2].

Regarding `O=C(c1ccc(S(F)(F)(F)(F)F)cc1)N1CCC(c2ccnc3[nH]c(C4CCCO4)nc23)CC1` (single isomer, unassigned) [Example 298, [4-(pentafluoro-λ^6-sulfanyl)phenyl]-[4-[2-[tetrahydrofuran-2-yl]-3H-imidazo[4,5-b]pyridin-7-yl]-1-piperidyl]methanone], the pIC50 in experiment [1] is 6.79; in experiment [2], 6.78.

For the compound `Nc1c(C(=O)N2CCC(c3ccnc4[nH]c(C5CCOCC5)nc34)CC2)cnn1-c1ccccc1` [Example 105, (5-amino-1-phenyl-pyrazol-4-yl)-[4-(2-tetrahydropyran-4-yl-3H-imidazo[4,5-b]pyridin-7-yl)-1-piperidyl]methanone], the values for the negative-log IC50 (pIC50) in experiment [1] and in experiment [2] were 5.18 and 5.16, respectively.

With `O=C(C1CC1c1cccc(O)c1)N1CCC(c2ccnc3[nH]c(C4CCOCC4)nc23)CC1` (centres unmarked) [Example 86, [2-(3-hydroxyphenyl)cyclopropyl]-[4-(2-tetrahydropyran-4-yl-3H-imidazo[4,5-b]pyridin-7-yl)-1-piperidyl]methanone], the negative logarithm of the IC50 (pIC50) in experiment [1] was under 5.00; in experiment [2], 4.60.

Take `O=C(c1ccc(S(F)(F)(F)(F)F)cc1)N1CCC(c2c(F)cnc3[nH]c(C4CCOC4)nc23)CC1` (single isomer, unassigned) [Example 400, [4-[6-fluoro-2-[tetrahydrofuran-3-yl]-3H-imidazo[4,5-b]pyridin-7-yl]-1-piperidyl]-[4-(pentafluoro-λ^6-sulfanyl)phenyl]methanone]: the figures for the negative logarithm of the IC50 (pIC50) in experiment [1] and in experiment [2] were 6.78 to 6.98 and 6.16, respectively.

With `O=C(C1CCN(c2ccccc2Cl)C1)N1CCC(c2ccnc3[nH]c(C4CCOCC4)nc23)CC1` (centres unmarked) [Example 118, [1-(2-chlorophenyl)pyrrolidin-3-yl]-[4-(2-tetrahydropyran-4-yl-3H-imidazo[4,5-b]pyridin-7-yl)-1-piperidyl]methanone], the pIC50 in experiment [1] was under 5.00; in experiment [2] it was 4.74.

Regarding `Nc1cc(OC(F)(F)F)ccc1C(=O)N1CCC(c2ccnc3[nH]c(C4CNCCO4)nc23)CC1` (single isomer, unassigned) [Example 96, [2-amino-4-(trifluoromethoxy)phenyl]-[4-[2-[morpholin-2-yl]-3H-imidazo[4,5-b]pyridin-7-yl]-1-piperidyl]methanone], the negative logarithm of the IC50 (pIC50) is 7.06 in experiment [1] and 7.08 in experiment [2].

Turning to `COC12CC(c3nc4c(C5CCN(C(=O)c6ccc(S(F)(F)(F)(F)F)cc6)CC5)ccnc4[nH]3)(C1)C2` [Example 302, [4-[2-(3-methoxy-1-bicyclo[1.1.1]pentanyl)-3H-imidazo[4,5-b]pyridin-7-yl]-1-piperidyl]-[4-(pentafluoro-λ^6-sulfanyl)phenyl]methanone], the pIC50 is 7.01 in experiment [1] and 7.02 in experiment [2].

For the compound `O=C1Nc2ccccc2OC1CC(=O)N1CCC(c2ccnc3[nH]c(C4CCOCC4)nc23)CC1` (centres unmarked) [Example 106, 2-[2-oxo-2-[4-(2-tetrahydropyran-4-yl-3H-imidazo[4,5-b]pyridin-7-yl)-1-piperidyl]ethyl]-4H-1,4-benzoxazin-3-one], the pIC50 is under 5.00 in experiment [1] and 4.59 in experiment [2].

Take `Nc1cc(OC(F)(F)F)ccc1C(=O)N1CCC(c2ccnc3[nH]c(C4CCN(CC(F)F)CC4)nc23)CC1` [Example 37, [2-Amino-4-(trifluoromethoxy)phenyl]-[4-[2-[1-(2,2-difluoroethyl)-4-piperidyl]-3H-imidazo[4,5-b]pyridin-7-yl]-1-piperidyl]methanone]: the pIC50 in experiment [1] and in experiment [2] was 7.33 each time.

For the compound `O=C(c1cnn(Cc2ccccc2Cl)c1)N1CCC(c2ccnc3[nH]c(C4CCOCC4)nc23)CC1` [Example 112, [1-[(2-chlorophenyl)methyl]pyrazol-4-yl]-[4-(2-tetrahydropyran-4-yl-3H-imidazo[4,5-b]pyridin-7-yl)-1-piperidyl]methanone], the values for the pIC50 in experiment [1] and in experiment [2] were under 5.00 and 4.83, respectively.

As for `CS(=O)(=O)c1ccc(C(=O)N2CCC(c3ccnc4[nH]c(C5CCOCC5)nc34)CC2)c(N)c1` [Example 84, (2-amino-4-methylsulfonyl-phenyl)-[4-(2-tetrahydropyran-4-yl-3H-imidazo[4,5-b]pyridin-7-yl)-1-piperidyl]methanone], the values for the negative logarithm of the IC50 (pIC50) in experiment [1] and in experiment [2] were under 5.00 and 4.57, respectively.

Regarding `O=C(c1ccc(OC(F)(F)F)cc1)N1CCC(c2c(F)cnc3[nH]c(C45CC(C(F)(F)F)(C4)C5)nc23)CC1` [Example 436, [4-[6-fluoro-2-[3-(trifluoromethyl)-1-bicyclo[1.1.1]pentanyl]-3H-imidazo[4,5-b]pyridin-7-yl]-1-piperidyl]-[4-(trifluoromethoxy)phenyl]methanone], the results for the pIC50 in experiment [1] and in experiment [2] were 7.06 to 7.42 and 5.35, respectively.

With `Nc1cc(OC(F)(F)F)ccc1C(=O)N1CCC(c2ccnc3[nH]c(C4COCCO4)nc23)CC1` (single isomer, unassigned) [Example 144, [2-amino-4-(trifluoromethoxy)phenyl]-[4-[2-[1,4-dioxan-2-yl]-3H-imidazo[4,5-b]pyridin-7-yl]-1-piperidyl]methanone], the pIC50 in experiment [1] was 7.01; in experiment [2] it was 6.99.

With `O=C(c1ccc(C(F)(F)F)c(=O)[nH]1)N1CCC(c2ccnc3[nH]c(C4CCOCC4)nc23)CC1` [Example 53, 6-[4-(2-Tetrahydropyran-4-yl-3H-imidazo[4,5-b]pyridin-7-yl)piperidine-1-carbonyl]-3-(trifluoromethyl)-1H-pyridin-2-one, hydrochloride], the negative logarithm of the IC50 (pIC50) was under 5.00 in experiment [1] and 6.58 in experiment [2].

In the case of `O=C(c1ccc(C(F)(F)F)[nH]c1=O)N1CCC(c2ccnc3[nH]c(C4CCOCC4)nc23)CC1` [Example 264, 3-[4-(2-tetrahydropyran-4-yl-3H-imidazo[4,5-b]pyridin-7-yl)piperidine-1-carbonyl]-6-(trifluoromethyl)-1H-pyridin-2-one], the pIC50 in experiment [1] is under 5.00; in experiment [2], 7.01.

Regarding `O=C(c1cn(-c2ccc(F)cc2)cn1)N1CCC(c2ccnc3[nH]c(C4CCOCC4)nc23)CC1` [Example 120, [1-(4-fluorophenyl)imidazol-4-yl]-[4-(2-tetrahydropyran-4-yl-3H-imidazo[4,5-b]pyridin-7-yl)-1-piperidyl]methanone], the values for the pIC50 in experiment [1] and in experiment [2] were under 5.00 and 5.18, respectively.

In turn, `O=C(c1ccc(S(F)(F)(F)(F)F)cc1)N1CCC(c2c(F)cnc3[nH]c(C4CN(C(=O)O)C5COCC5O4)nc23)CC1` (racemic) [Example 455, (rac)-2-[6-fluoro-7-[1-[4-(pentafluoro-λ^6-sulfanyl)benzoyl]-4-piperidyl]-3H-imidazo[4,5-b]pyridin-2-yl]-2,3,4a,5,7,7a-hexahydrofuro[3,4-b][1,4]oxazine-4-carboxylic acid] gave a pIC50 in experiment [2] of 5.19.

(Values after patent US20260022116A1, “IMIDAZOPYRIDINE COMPOUNDS, PREPARATION THEREOF AND THERAPEUTIC USES THEREOF” (SANOFI, priority 2022, published 2026).)
